Among the test systems are RXF 393 renal; IGROV1 ovarian; MDA-MB-231 breast; SK-MEL-28 melanoma; EKVX NSCLC; A549 NSCLC; SNB-19 CNS; HOP-92 NSCLC; UO-31 renal; SK-MEL-2 melanoma.
Experiment in all cases: growth of human tumour cells (NCI), 48 h

Our source for the TGI values is PubChem BioAssay (NCI).

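Protocol summary: plate cells (96-well), add compound at 5 concentrations, incubate 48 h, interpolate endpoints linearly. Definition used: TGI = concentration required for complete inhibition of growth.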 Where only a bound is given, the exact number is not on record here.

As for `CC(C)(C)OC(=O)N1CCc2c(n(C/C=C/c3ccccc3)[nH]c2=O)C1`, the TGI with RXF 393 renal, with IGROV1 ovarian, in the test on MDA-MB-231 breast, in the test on SK-MEL-28 melanoma, in the test on EKVX NSCLC and in the test on A549 NSCLC was > 100 µM each time. Also, the TGI in the test on SNB-19 CNS, in the test with HOP-92 NSCLC, with UO-31 renal and in the test with SK-MEL-2 melanoma was > 100 µM in each case.

In the case of `O=S(=O)(O)C1CCC(O)C2[N-]CCCC21.O=S(=O)(O)C1CCC(O)C2[N-]CCCC21.[Zn+2]` (stereo not given), the TGI in the test on RXF 393 renal, with IGROV1 ovarian, with MDA-MB-231 breast, with SK-MEL-28 melanoma, in the test on EKVX NSCLC and in the test on A549 NSCLC was > 100 µM each time. For the same compound, the TGI with SNB-19 CNS, in the test on HOP-92 NSCLC, in the test on UO-31 renal and in the test with SK-MEL-2 melanoma was > 100 µM each time.

For the compound `CC(C)(C)c1ccc(-c2nnc(-c3cc(C#N)cc(-c4nnc(-c5ccc(C(C)(C)C)cc5)o4)c3)o2)cc1`, the TGI in the test on RXF 393 renal was 96.9 µM; in the test on IGROV1 ovarian, > 100 µM; in the test on MDA-MB-231 breast, > 100 µM; in the test with SK-MEL-28 melanoma it was > 100 µM; in the test on EKVX NSCLC, > 100 µM; in the test on A549 NSCLC, > 100 µM. Also, the TGI with SNB-19 CNS, in the test on HOP-92 NSCLC, with UO-31 renal and in the test on SK-MEL-2 melanoma was > 100 µM throughout.

Take `O=C1CSC2(CC(/C=C/c3ccccc3Br)=NN2c2cccc(S(=O)(=O)O)c2)N1c1nc2ccccc2s1` (stereo not given): the TGI in the test on RXF 393 renal, with IGROV1 ovarian, with MDA-MB-231 breast, in the test with SK-MEL-28 melanoma, in the test on EKVX NSCLC and with A549 NSCLC was > 100 µM throughout. For the same compound, the TGI in the test on SNB-19 CNS, in the test with HOP-92 NSCLC, in the test on UO-31 renal and in the test on SK-MEL-2 melanoma was > 100 µM in each case.

On to `CC/C(Cl)=N\OC(=O)Nc1ccc(F)cc1F`, for which the TGI worked out at 27.7 µM in the test with RXF 393 renal; 31.9 µM in the test on IGROV1 ovarian; 36.7 µM in the test on MDA-MB-231 breast; 35.9 µM in the test with SK-MEL-28 melanoma; 20.3 µM in the test with EKVX NSCLC; 39.8 µM with A549 NSCLC. The TGI in the test with SNB-19 CNS is > 56.6 µM; in the test on HOP-92 NSCLC, 4.34 µM; in the test with UO-31 renal it was 29.4 µM; in the test on SK-MEL-2 melanoma it was 33.1 µM.

As to `COc1ccc(C=Nc2ccc(-c3nc4ccccc4[nH]3)cc2)cc1OC`, the TGI in the test with RXF 393 renal, in the test with IGROV1 ovarian, with MDA-MB-231 breast, with SK-MEL-28 melanoma, in the test on EKVX NSCLC and in the test on A549 NSCLC was > 100 µM each time. Besides, the TGI with SNB-19 CNS, in the test on HOP-92 NSCLC, in the test with UO-31 renal and in the test with SK-MEL-2 melanoma was > 100 µM each time.

`O=[N+]([O-])/C=C/c1cn(CCCCCn2cc(/C=C/[N+](=O)[O-])c3ccccc32)c2ccccc12`: the TGI is 1.35 µM in the test on RXF 393 renal; 5.81 µM in the test with IGROV1 ovarian; 4.28 µM in the test on MDA-MB-231 breast; 12.2 µM in the test on SK-MEL-28 melanoma; > 37.4 µM in the test with EKVX NSCLC; 11.7 µM in the test with A549 NSCLC. In addition, the TGI was 24.2 µM with SNB-19 CNS, 67 µM in the test with HOP-92 NSCLC, 9.78 µM with UO-31 renal and 38.1 µM in the test on SK-MEL-2 melanoma.

Turning to `O=P(O)(O)CN1CCNCCN(CP(=O)(O)O)CCNCC1`, the TGI in the test with RXF 393 renal was > 100 µM; with IGROV1 ovarian, > 51.2 µM; in the test on MDA-MB-231 breast it was > 100 µM; in the test with SK-MEL-28 melanoma, > 100 µM; in the test with EKVX NSCLC, > 100 µM; in the test with A549 NSCLC, > 100 µM. Moreover, the TGI in the test with SNB-19 CNS is > 100 µM; in the test on HOP-92 NSCLC, 9.76 µM; with UO-31 renal, > 100 µM; in the test on SK-MEL-2 melanoma, > 100 µM.

With `CCOC(=O)CCCn1cc(C(=O)OC)nn1`, the TGI in the test on RXF 393 renal, in the test on IGROV1 ovarian, in the test with MDA-MB-231 breast, in the test with SK-MEL-28 melanoma, in the test on EKVX NSCLC and with A549 NSCLC was > 100 µM each time. For the same compound, the TGI with SNB-19 CNS, in the test on HOP-92 NSCLC, in the test with UO-31 renal and in the test on SK-MEL-2 melanoma was > 100 µM in each case.

As to `CC1(C)CCC2(C(=O)OC3OC(CO)C(O)C(O)C3O)CCC3(CO)C(=CCC4C5(C)CC(O)C(O)C(C)(C(=O)OC6OC(CO)C(O)C(O)C6O)C5CCC43C)C2C1` (stereo not given), the TGI with RXF 393 renal, in the test with IGROV1 ovarian, in the test with MDA-MB-231 breast, in the test with SK-MEL-28 melanoma, in the test with EKVX NSCLC and with A549 NSCLC was > 100 µM throughout. For the same compound, the TGI in the test on SNB-19 CNS, with HOP-92 NSCLC, in the test with UO-31 renal and in the test with SK-MEL-2 melanoma was > 100 µM throughout.

With `O=C1C=C(N2CCN(c3ccccn3)CC2)C(=O)c2c(O)ccc(O)c21`, the TGI with RXF 393 renal was 43.4 µM; with IGROV1 ovarian it was 43.5 µM; with MDA-MB-231 breast it was 44.9 µM; with SK-MEL-28 melanoma, > 56.2 µM; in the test with EKVX NSCLC, > 65.7 µM; with A549 NSCLC, 40.7 µM. In addition, the TGI in the test with SNB-19 CNS is 78.6 µM; in the test on HOP-92 NSCLC, > 54.1 µM; with UO-31 renal, > 46.4 µM; in the test with SK-MEL-2 melanoma, 18.6 µM.

On to `CC1=C2C(=O)c3ccccc3C(=O)[C@H]2C[C@@H](N2CCCCCC2=O)O1`, for which the TGI in the test with RXF 393 renal was 55.9 µM; in the test with IGROV1 ovarian, 30.7 µM; with MDA-MB-231 breast, 53.5 µM; in the test with SK-MEL-28 melanoma, 35.7 µM; in the test on EKVX NSCLC, 57 µM; with A549 NSCLC, 39.7 µM. For the same compound, the TGI in the test with SNB-19 CNS was 39.2 µM; with HOP-92 NSCLC it was 36 µM; with UO-31 renal, 33.3 µM; in the test on SK-MEL-2 melanoma, 40 µM.

Regarding `COC(=O)C(C(=O)C(=O)NC1Nc2ccc(C)cc2S1)c1nc2ccc(Cl)cc2[nH]c1=O` (stereo not given), the TGI in the test with RXF 393 renal, with IGROV1 ovarian, with MDA-MB-231 breast, with SK-MEL-28 melanoma, in the test on EKVX NSCLC and with A549 NSCLC was > 100 µM throughout. Further, the TGI with SNB-19 CNS, with HOP-92 NSCLC, in the test with UO-31 renal and in the test with SK-MEL-2 melanoma was > 100 µM each time.
